For assay [1], the system named is Pdx1. Description: Affymetrix gene chip analysis of KKAy islets: Pdx1. Type of assay: in vivo, mice. The settings on record: ISV vs. KKAy control islets, 9 weeks. As to the method: (§1) cRNA preparation and in vitro transcription: In total 6 Affymetrix arrays MOE430 2.0 probe array cartridge were used i.e. for analysis of 3 replicas for the KKAy control group and the ISV group, respectively. Each of the 6 samples consisted of pooled RNA from 3-4 KKAy mice. Preparation of target for hybridization was prepared from 340 ng of total RNA using MessageAmp™ II aRNA Amplification Kits (Ambion), according to the manufacturers instructions. Arrays were hybridised and scanned as described elsewhere (Kruhoffer et al., 2005).

In assay [2] the test system is Foxa2. Nature of the assay: Affymetrix gene chip analysis of KKAy islets: Foxa2. Type of assay: in vivo, mice. Particulars: ISV vs. KKAy control islets, 9 weeks. As for the experimental part: as §1
Assay [3] has as its system Beta2/neuroD. Nature of the assay: Affymetrix gene chip analysis of KKAy islets: Beta2/neuroD. In kind it is in vivo, mice. The settings on record: ISV vs. KKAy control islets, 9 weeks. As to the method: as §1
In assay [4] the test system is isolated NMRI mice islets. Description: Glucose stimulated insulin secretion (GSIS) from isolated NMRI mice islets. Type of assay: cell-based. As for the experimental part:
For in vitro studies with steviol and ISV, we included adult female NMRI mice (Taconic, Ry Denmark), all weighing 22-25 g. We used 12 hours light/dark cycle. The Danish Council for Animal experiments has approved the study.
Islets were isolated by the collagenase digestion technique. In brief, the animals were anesthetized with pentobarbital (50 mg/kg intraperitoneally) and midline laparotomy was performed. The pancreas was retrogradely filled with 3 mL ice-cold Hanks balanced salt solution (([HBSS] Sigma Chemical, St Louis, Mo.) supplemented with 0.3 mg/ml collagenase Boehringer Mannheim GmbH, Germany). The pancreas was subsequently removed and incubated for 19 minutes at 37° C. After rinsing in HBSS, the islets were handpicked under a stereomicroscope and immediately transferred to a tubes containing 1 ml Trizol (Gibco/Invitrogene, Calsbad, Calif., USA). The islets isolated from the NMRI mice were incubated overnight at 37° C. and 95% normal atmosphere/5% CO2 in 10 ml RPMI 1640 containing 11.1 mmol/L glucose supplemented with penicillin G and 100 μg/mL streptomycin (all Gibco/Invitrogene, Calsbad, Calif., USA).
The NMRI female mice islets were rinsed twice with a modified Krebs-Ringer buffer (KRB) supplemented with 3.3 mmol/L glucose and 0.1% human serum albumin (Sigma). The KRB contained 125 mmol/L NaCl, 5.9 mmol/L KCl, 1.2 MgCl, 1.28 CaCl2 and 25 mmol/L HEPES (Ph 7.4: all Sigma). Single islets were incubated in 100 μL KRB containing glucose (3.3 and 16.7 mmol/L) and steviol/ISV according to the protocols (Jeppesen et al., 2000). After incubation (60 min), 50 μL of the medium was frozen for RIA analysis of insulin.

Assay [5] has as its system INS-1. Description: Gene expression in islets from diabetic KKAy-mice, real time RT-PCR (Example 2): INS-1. In kind it is in vivo. Particulars: islets of KKAy-mice after nine weeks treatment, normalized to 18S rRNA. As for the experimental part: (§2) A the end of the nine week period of the in vivo study in example 1 RNA was purified from Islets, muscle, liver and fat from the three experimental groups, using standard techniques as described in Kiergen, RNA easy.
(§3) Gene expression of PDX-1, IRS1, Beta2, 11beta-HSD-1, Akt1, C/EBP-alpha, CPT1, GLUT2, IGF1, IR and Ins1 was measured with Real time RT-PCR using Taq Man Assays normalized to 18S rRNA, using the standard protocol (ABI, USA). All reagents were obtained from (ABI, USA). All probes are standard probes obtainable from ABI, USA, under the specific probe code number, given in respect of each gene.

Assay [6] has as its system visfatin. Nature of the assay: Affymetrix gene chip analysis of KKAy islets: visfatin. In kind it is in vivo, mice. The settings on record: ISV vs. KKAy control islets, 9 weeks. As for the experimental part: as §1
Assay [7] relates to Somatostatin. Nature of the assay: Affymetrix gene chip analysis of KKAy islets: Somatostatin. Type of assay: in vivo, mice. Particulars: ISV vs. KKAy control islets, 9 weeks. As to the method:
as §1

The subject of assay [8] is IR. Description: Affymetrix gene chip analysis of KKAy islets: IR. Particulars: ISV vs. KKAy control islets, 9 weeks. Type of assay: in vivo, mice. As to the method:
as §1

Assay [9] relates to C/EBPalpha. Nature of the assay: Affymetrix gene chip analysis of KKAy islets: C/EBPalpha. Type of assay: in vivo, mice. Particulars: ISV vs. KKAy control islets, 9 weeks. As to the method: as §1
Assay [10] deals with Nkx6-1. Nature of the assay: Affymetrix gene chip analysis of KKAy islets: Nkx6-1. Type of assay: in vivo, mice. Particulars: ISV vs. KKAy control islets, 9 weeks. As to the method: as §1
Assay [11] relates to GLUT2. Nature of the assay: Affymetrix gene chip analysis of KKAy islets: GLUT2. In kind it is in vivo, mice. The settings on record: ISV vs. KKAy control islets, 9 weeks. As for the experimental part:
as §1

Assay [12] deals with Nkx2-2. Nature of the assay: Affymetrix gene chip analysis of KKAy islets: Nkx2-2. In kind it is in vivo, mice. Particulars: ISV vs. KKAy control islets, 9 weeks. As to the method: as §1
Assay [13] concerns GLUT-2. Description: Gene expression in islets from diabetic KKAy-mice, real time RT-PCR (Example 2): GLUT-2. In kind it is in vivo. The settings on record: islets of KKAy-mice after nine weeks treatment, normalized to 18S rRNA. As to the method: as §2, §3
Assay [14] relates to total insulin protein content of KKAy islets. Description: Insulin content of isolated islets from KKAy mice (RIA). In kind it is in vivo. Particulars: KKAy mice after 9 weeks treatment. As to the method: The Insulin content of isolated islet from the KKAy mice was measured using RIA as described for the Insulin assay. Total islet protein was purified from the organic phase during from the RNA Trizol preparation according to the manufactures instruction (Gibco BRL, Life Technologies, Roskilde, DK).
In order to clarify if this increased levels of Ins1 mRNA are translated, the total insulin content from the very limited protein fraction collected from the organic phase during RNA preparation from isolated islets from the KKAY and ISV group was measured using RIA (FIG. 17). The insulin content from the ISV group compared to the KKAy control was 2.4 fold (p=0.003) higher, supporting the gene expression analysis.

Consider `C[C@@]12CC[C@@H]3[C@@](CC[C@H]4[C@@]3(C)CCC[C@@]4(C)C(=O)O)(CC1=O)C2` (single isomer, unassigned; ent-16) [ISV, ent-16-ketobeyeran-19-oic acid], for which, in assay [1], the “array: change of Pdx1 expression” value is listed as “upregulation”. Also, in assay [2], the “array: increased expression in Foxa2” value was determined as 1.9 fold. In addition, in assay [3], the “array: change of Beta2/neuroD expression” value was “upregulation”. For the same compound, the “effect on insulin secretion at low glucose” value in assay [4] (3.3 mmol/L glucose, 60 min incubation) is given as “did not potentiate the insulin secretion”. In assay [4] (16.7 mmol/L glucose, 60 min incubation), the “concentration giving apparent maximal effect on glucose stimulated insulin secretion” value is listed as “approx. 10^−8 mol/l”. The “potency on GSIS, isosteviol compared with steviol, at higher concentration” value in assay [4] (10^−8 mol/l-10^−6 mol/l, 16.7 mmol/l glucose, 60 minutes) is reported as “not found any significant difference”. In addition, the “potency on GSIS, isosteviol compared with steviol, at low concentration” value in [4] (10^−10 mol/l, 16.7 mmol/l glucose, 60 minutes) was “significantly more potent than steviol”. In addition, the “effect on insulin secretion stimulated by 16.7 mmol/L glucose” value in [4] (ISV 10^−12 mol/l-10^−8 mol/l, 60 min incubation) is listed as “potentiated insulin secretion”. Further, the “increased expression of INS-1 compared to standard diet” value in assay [5] is 132%. The “array: change of visfatin expression” value in [6] is recorded as “no changes”. For the same compound, the “array: increased expression in Somatostatin” value in [7] is 2.3 fold. The “array: change of IR expression” value in [8] was “no changes”. The “array: change of C/EBPalpha expression” value in assay [9] was “down regulation”. For the same compound, the “array: increased expression in Nkx6-1” value in assay [10] is 2.64 fold. In [11], the “array: change of GLUT2 expression” value is given as “upregulation”. The “array: increased expression in Nkx2-2” value in assay [12] was 2.3 fold. For the same compound, the “increased expression of GLUT-2 compared to standard diet” value in assay [13] is recorded as 60%. Moreover, in assay [14], the “insulin content of islets compared to the KKAy control, higher” value is reported as 2.4 fold.

The record behind these values is US20100093861A1, “TREATMENT OF INSULIN RESISTANCE OR DISEASES ASSOCIATED WITH INSULIN RESISTANCE” (Stevia ApS, priority 2006, published 2010).
